The source of these data is patent US10035771B2 (priority 2013, dated 2018).

For assay [1], the target named is type B botulinum toxin light chain (BoNT/B-LC) (Clostridium botulinum, UniProt P10844). Nature of the assay: biochemical. Conditions: read-out: Inhibition rate %.
Assay [2] has as its target tetanus toxin light chain (TeNt-LC) (Clostridium tetani, UniProt P04958). Nature of the assay: biochemical. Conditions: read-out: Inhibition rate %.
Assay [3] has as its target type E botulinum toxin light chain (BoNT/E-LC) (Clostridium botulinum, UniProt Q00496). Nature of the assay: biochemical. Conditions: read-out: Inhibition rate %.
Assay [4] has as its target type A botulinum toxin light chain (BoNT/A-LC) (Clostridium botulinum, UniProt P0DPI1). Nature of the assay: biochemical. The note with it: read-out: Inhibition rate %.
The next assay has as its target BoNT/F-LC (Clostridium botulinum, UniProt A7GBG3). Nature of the assay: biochemical. The note with it: read-out: Inhibition rate %.
In assay [5] the target is type B botulinum toxin (BoNT/B) (Clostridium botulinum, UniProt P10844). More on the design: species or system Balb/c mice. The note with it: mouse, in vivo, ip.
Sequence of type B botulinum toxin (BoNT/B) (P10844 2-441 limits assumed): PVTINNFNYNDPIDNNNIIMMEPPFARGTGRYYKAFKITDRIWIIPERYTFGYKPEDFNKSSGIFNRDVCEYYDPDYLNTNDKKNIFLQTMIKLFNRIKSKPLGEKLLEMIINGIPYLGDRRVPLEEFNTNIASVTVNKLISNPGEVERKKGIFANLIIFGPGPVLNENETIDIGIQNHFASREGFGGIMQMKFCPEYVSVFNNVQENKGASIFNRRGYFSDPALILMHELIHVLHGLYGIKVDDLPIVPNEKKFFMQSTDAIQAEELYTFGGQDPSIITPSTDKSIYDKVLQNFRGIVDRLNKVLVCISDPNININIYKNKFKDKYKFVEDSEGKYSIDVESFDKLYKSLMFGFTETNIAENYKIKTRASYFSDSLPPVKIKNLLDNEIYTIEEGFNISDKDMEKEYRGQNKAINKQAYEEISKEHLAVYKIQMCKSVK
Sequence of type B botulinum toxin (BoNT/B) (P10844 442-1291 limits assumed): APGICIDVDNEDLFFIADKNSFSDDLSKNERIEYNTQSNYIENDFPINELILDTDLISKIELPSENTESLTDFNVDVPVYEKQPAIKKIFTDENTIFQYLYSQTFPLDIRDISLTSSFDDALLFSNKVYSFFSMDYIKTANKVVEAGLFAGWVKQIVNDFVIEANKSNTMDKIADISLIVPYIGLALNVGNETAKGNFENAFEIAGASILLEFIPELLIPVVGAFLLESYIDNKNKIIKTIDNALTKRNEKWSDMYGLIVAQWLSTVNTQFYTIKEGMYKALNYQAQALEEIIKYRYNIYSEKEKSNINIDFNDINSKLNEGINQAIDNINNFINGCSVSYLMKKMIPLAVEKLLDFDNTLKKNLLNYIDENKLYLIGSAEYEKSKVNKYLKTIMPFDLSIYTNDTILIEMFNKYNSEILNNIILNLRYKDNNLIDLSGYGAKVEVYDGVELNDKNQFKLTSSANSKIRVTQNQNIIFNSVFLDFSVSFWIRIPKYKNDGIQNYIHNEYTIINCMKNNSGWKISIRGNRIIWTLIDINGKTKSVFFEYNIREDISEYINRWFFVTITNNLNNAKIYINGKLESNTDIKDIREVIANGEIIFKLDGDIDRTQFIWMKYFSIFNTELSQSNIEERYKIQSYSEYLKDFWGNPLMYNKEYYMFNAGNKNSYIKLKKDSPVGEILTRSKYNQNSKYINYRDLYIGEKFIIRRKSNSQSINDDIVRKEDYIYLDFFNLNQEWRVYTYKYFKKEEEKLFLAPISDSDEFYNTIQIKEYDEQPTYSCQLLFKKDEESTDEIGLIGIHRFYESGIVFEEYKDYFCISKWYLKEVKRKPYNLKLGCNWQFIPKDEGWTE

Sequence of type A botulinum toxin light chain (BoNT/A-LC) (P0DPI1 2-448 limits assumed): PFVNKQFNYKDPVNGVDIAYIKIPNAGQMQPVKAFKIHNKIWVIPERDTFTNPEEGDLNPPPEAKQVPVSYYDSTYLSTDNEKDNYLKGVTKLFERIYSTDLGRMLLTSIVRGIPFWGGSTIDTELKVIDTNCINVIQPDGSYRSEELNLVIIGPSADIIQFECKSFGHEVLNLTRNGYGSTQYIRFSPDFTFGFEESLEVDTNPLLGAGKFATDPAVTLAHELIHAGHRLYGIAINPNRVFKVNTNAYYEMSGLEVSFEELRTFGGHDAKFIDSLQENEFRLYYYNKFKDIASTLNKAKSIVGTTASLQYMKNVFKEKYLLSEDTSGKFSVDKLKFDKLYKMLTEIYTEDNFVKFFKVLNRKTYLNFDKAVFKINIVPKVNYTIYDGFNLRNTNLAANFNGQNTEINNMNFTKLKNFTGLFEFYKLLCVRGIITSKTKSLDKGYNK
Sequence of tetanus toxin light chain (TeNt-LC) (P04958 2-457 limits assumed): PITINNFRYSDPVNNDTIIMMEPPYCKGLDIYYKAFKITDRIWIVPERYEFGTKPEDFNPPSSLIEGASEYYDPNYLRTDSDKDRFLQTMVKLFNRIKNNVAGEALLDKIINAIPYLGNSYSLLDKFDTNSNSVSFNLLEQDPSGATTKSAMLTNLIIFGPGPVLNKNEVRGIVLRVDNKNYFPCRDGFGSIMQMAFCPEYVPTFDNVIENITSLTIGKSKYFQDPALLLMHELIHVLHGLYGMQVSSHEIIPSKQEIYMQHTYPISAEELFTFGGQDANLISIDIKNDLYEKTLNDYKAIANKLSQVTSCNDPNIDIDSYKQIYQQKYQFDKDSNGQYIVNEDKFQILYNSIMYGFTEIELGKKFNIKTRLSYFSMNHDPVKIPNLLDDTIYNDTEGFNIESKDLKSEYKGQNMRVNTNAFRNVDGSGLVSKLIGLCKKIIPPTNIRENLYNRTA
Sequence of type E botulinum toxin light chain (BoNT/E-LC) (Q00496 2-422 limits assumed): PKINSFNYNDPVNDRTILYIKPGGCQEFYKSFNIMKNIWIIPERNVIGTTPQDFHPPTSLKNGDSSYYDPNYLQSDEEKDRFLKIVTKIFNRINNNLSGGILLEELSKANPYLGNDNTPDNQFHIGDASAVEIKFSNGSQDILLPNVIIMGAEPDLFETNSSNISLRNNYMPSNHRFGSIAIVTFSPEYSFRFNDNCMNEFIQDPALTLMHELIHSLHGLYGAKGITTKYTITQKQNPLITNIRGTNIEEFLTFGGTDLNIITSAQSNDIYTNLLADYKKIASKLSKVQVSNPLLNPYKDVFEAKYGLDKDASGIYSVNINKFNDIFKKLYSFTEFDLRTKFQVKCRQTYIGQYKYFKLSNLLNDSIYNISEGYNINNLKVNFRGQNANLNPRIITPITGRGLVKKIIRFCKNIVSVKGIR
Sequence of BoNT/F-LC (A7GBG3 1-436 limits assumed): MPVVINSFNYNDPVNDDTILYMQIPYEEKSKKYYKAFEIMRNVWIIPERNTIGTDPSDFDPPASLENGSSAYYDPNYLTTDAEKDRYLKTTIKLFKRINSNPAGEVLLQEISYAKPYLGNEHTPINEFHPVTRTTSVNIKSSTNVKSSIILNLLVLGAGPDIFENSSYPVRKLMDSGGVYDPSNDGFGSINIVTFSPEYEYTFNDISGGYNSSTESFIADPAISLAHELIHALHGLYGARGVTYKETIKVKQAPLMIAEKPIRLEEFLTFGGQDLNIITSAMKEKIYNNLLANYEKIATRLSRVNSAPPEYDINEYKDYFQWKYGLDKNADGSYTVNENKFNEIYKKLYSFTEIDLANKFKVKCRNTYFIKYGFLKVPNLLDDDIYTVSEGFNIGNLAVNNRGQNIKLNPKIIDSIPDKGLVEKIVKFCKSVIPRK
Sequence of type B botulinum toxin light chain (BoNT/B-LC) (P10844 2-441 limits assumed): as the sequence (P10844 2-441 limits assumed) above

With `O=C(CSc1ncccc1C(=O)[O-])Nc1ccccc1Cl.[K+]` [Example 8, potassium], the inhibition at 100 µg/mL in assay [1] is 35%; in assay [3], 27.6%; in assay [4], 25.1%; on BoNT/F-LC, 15.3%. In assay [2], the inhibition at 200 µg/mL is 21.1%.
On to `COc1ccc(Cl)cc1NC(=O)CSc1cc(C(=O)[O-])ccn1.[K+]` [Example 15, potassium], for which the inhibition at 100 µg/mL was found to be 19.4% in assay [1], 16.3% in assay [3], 3% in assay [4] and 7.2% on BoNT/F-LC. For the same compound, the inhibition at 200 µg/mL in assay [2] came to 23.5%.
Consider `O=C(CSc1ncccc1C(=O)[O-])Nc1cccc(Cl)c1.[K+]` [Example 20, potassium], for which the inhibition at 100 µg/mL was determined as 41% in assay [1], 4.2% in assay [3], 6.8% in assay [4] and 17.8% at BoNT/F-LC. In addition, the inhibition at 200 µg/mL in assay [2] was determined as 22.2%.
For `COc1ccc(Cl)cc1NC(=O)CSc1ncccc1C(=O)O` [Example 2] the same measures were 20.5%, 11.6%, 12.1%, 13.2% and 12.3%.
For `COc1ccc(OC)c(NC(=O)CSc2ncccc2C(=O)O)c1` [Example 16, potassium] the same measures were 20.1%, 5.2%, 17.9%, 9.8% and 16.2%.
Taken in the same sequence, the figures for `O=C(CSc1ncccc1C(=O)[O-])Nc1cc(OC(F)(F)F)ccc1Br.[K+]` [Example 26, potassium] were 30%, 12.1%, 27.4%, 13.1% and 17.1%.
In the case of `COc1ccc(Cl)c(NC(=O)CSc2ncccc2C(=O)[O-])c1.[K+]` [Example 14, potassium], the inhibition at 100 µg/mL worked out at 24.2% in assay [1], 13.5% in assay [3], 19.8% in assay [4] and 9.8% at BoNT/F-LC. Also, the inhibition at 200 µg/mL in assay [2] amounted to 12.3%.
With `O=C(CSc1ncccc1C(=O)[O-])Nc1cccc(Cl)c1.[K+]` [Example 20], the “% survival” value in assay [5] stood at 0%.
Take `O=C(CSc1ncccc1C(=O)[O-])Nc1ccccc1OC(F)(F)F.[K+]` [Example 24, potassium]: the inhibition at 100 µg/mL in assay [1] is 29.3%; in assay [3] it was 5.6%; in assay [4], 8.9%; on BoNT/F-LC it was 11.2%. In addition, in assay [2], the inhibition at 200 µg/mL was determined as 13.2%.
Taken in the same sequence, the figures for `O=C(CSc1ncccc1C(=O)O)Nc1ccc(F)cc1` [Example 19, potassium] were 3%, 6.8%, 3%, 4% and 2.7%.
For `O=C(CSc1ncccc1C(=O)O)Nc1cc(F)ccc1F` [Example 22, potassium] the same measures were 2.7%, 2.1%, 3.2%, 3.4% and 4.4%.
Consider `O=C(CSc1ncccc1C(=O)[O-])Nc1ccc(Br)cc1.[K+]` [Example 12], for which the “% survival” value in assay [5] is 80%.
Same read-out and setting: the result for `O=C(CSc1ncccc1C(=O)[O-])Nc1cc(Br)ccc1Br.[K+]` [Example 9] reads 20%.
In the case of `CCOc1ccccc1NC(=O)CSc1ncccc1C(=O)O` [Example 5], the inhibition at 100 µg/mL in assay [1] came out at 4.3%; in assay [3] it was 6.8%; in assay [4], 2.7%; on BoNT/F-LC, 5%. Further, the inhibition at 200 µg/mL in assay [2] worked out at 8%.
With `O=C(CSc1ncccc1C(=O)[O-])Nc1cc(OC(F)(F)F)ccc1Br.[K+]` [Example 26], in assay [5], the “% survival” value stood at 20%.
On the same count and under the same terms, the result for `O=C(CSc1ncccc1C(=O)[O-])Nc1ccccc1OC(F)(F)F.[K+]` [Example 24] reads 80%.
`O=C(CSc1ncccc1C(=O)[O-])Nc1ccc(OC(F)(F)F)cc1.[K+]` [Example 21, potassium]: the inhibition at 100 µg/mL in assay [1] worked out at 28%; in assay [3], 20.3%; in assay [4], 14.3%; on BoNT/F-LC it was 16.5%. The inhibition at 200 µg/mL in assay [2] is 17.4%.
In the case of `COc1ccc(F)cc1NC(=O)CSc1ncccc1C(=O)O` [Example 13, potassium], the inhibition at 100 µg/mL in assay [1] is 22%; in assay [3], 18.3%; in assay [4], 20.3%; at BoNT/F-LC, 16.4%. Besides, the inhibition at 200 µg/mL in assay [2] is 14.6%.
For `CCCOc1ccc(Cl)cc1NC(=O)CSc1ncccc1C(=O)O` [Example 7] the same measures were 24.2%, 14%, 18.1%, 11.3% and 20%.
For `O=C(CSc1ncccc1C(=O)[O-])Nc1cc(Br)ccc1Br.[K+]` [Example 9, potassium] the same measures were 29.2%, 8.2%, 9.3%, 12.1% and 15.2%.
Taken in the same sequence, the figures for `O=C(CSc1ncccc1C(=O)O)Nc1cccc(OC(F)(F)F)c1` [Example 25, potassium] were 15.2%, 4.3%, 2.9%, 3% and 5.7%.
As for `O=C(CSc1ncccc1C(=O)[O-])Nc1ccc(Br)cc1.[K+]` [Example 12, potassium], the inhibition at 100 µg/mL in assay [1] was determined as 29.1%; in assay [3], 12.3%; in assay [4] it was 9.4%; at BoNT/F-LC, 13.2%. In addition, the inhibition at 200 µg/mL in assay [2] came to 16.4%.
Taken in the same sequence, the figures for `O=C(CSc1ncccc1C(=O)O)Nc1ccccc1` [Example 17, 2-(anilino-2-acetylthio)nicotinic Acid] were 3.7%, 18%, 15.4%, 8.3% and 6.4%.
For the compound `O=C(CSc1ncccc1C(=O)[O-])Nc1cc(Cl)ccc1OCc1ccccc1.[K+]` [Example 23, sodium], the inhibition at 100 µg/mL in assay [1] was 55.7%; in assay [3] it was 50.7%; in assay [4], 78%; on BoNT/F-LC it was 35.8%. Also, the inhibition at 200 µg/mL in assay [2] turned out to be 30.3%.
For `CCOc1ccc(Cl)cc1NC(=O)CSc1ncccc1C(=O)O` [Example 6] the same measures were 8.6%, 16.8%, 14.7%, 6.7% and 4.7%.
